SMILES: CC(C)c1[nH]n(-c2c(Cl)cc(Cl)cc2Cl)c2nc(Cc3ccc(NC(=O)OCCCN(C)C)cc3)nc(=O)c1-2 [Example 1, 1-(2,4,6-trichlorophenyl)-3-isopropyl-6-(4-(3-(N,N-dimethylamino)prop-1-yloxycarbonylamino)benzyl)pyrazolo[3,4-d]pyrimidin-4-one]
- melting point: 200 to 202 °C

Reference: patent publication US20040248905A1, “6-Substituted pyrazolo [3,4-d] pyrimidin-4-ones useful as cyclin dependent kinase inhibitors” (priority 2001, published 2004)
